# Where two headings read alike, the source gives them in different places.
# How the values were obtained:
# hepG2 = experiment: Cytotoxicity (Example 73, Table 2); type: cell-based; conditions: Homo sapiens, read-out: EC50 (μM) hepG2
# [1] = tested on: rat cardiomyoblast (H9c2) cells; experiment: Cytotoxicity, WST-1 and nuclear morphology (Example 73); type: cell-based; conditions: read-out: EC50 (μM) H9c2 19% O2
# Method: (§1) All cell culturing media and serum were from Sigma-Aldrich (St. Louis, Mo., USA). Product Nos. are given in parentheses. The human acute myeloid leukemia cell line MOLM-13 was cultured in RPMI medium (R5886) enriched with […] (F7524) and 0.2 mM L-glutamine (G7513). The normal rat kidney epithelial (NRK) and the rat cardiomyoblast (H9c2) cells were cultured in DMEM medium (D6429) enriched with 10% fetal bovine serum (F7524). All cell lines were additionally supplemented with 100 IU/mL penicillin and […] (P0781). The cells were cultured in a humidified atmosphere either under 2% or 20% O2 at 37° C.
# (§2) All analogues were dissolved in DMSO (D5879, Sigma-Aldrich) at concentrations between 2.5 and 20 mM before testing. For cytotoxic testing, the MOLM-13 cells were seeded as 20,000 cells/well, while NRK and H9c2 cells were seeded as 5,000 cells/well in 96-well Microplates (#167008, Thermo Scientific™ Nunc™ MicroWell™) with 100 μL medium/well. The cells were exposed to various concentrations of iodinin or its analogues for 24 hrs before the cell proliferation reagent WST-1 was used to assess the viability, in accordance with the manufacturer's instructions (11644807001, Roche Diagnostics, Sigma-Aldrich). The cells were next fixed in 2% buffered formaldehyde (pH 7.4) with the DNA-specific dye Hoechst 33342 (Polysciences Inc.) and assessed for cell death by UV-microscopy based on nuclear morphology. The highest concentration of analogue corresponded to 1% of DMSO, which alone gave less than 7% cell death as judged by nuclear morphology.
# (§3) EC50 values were determined by analyses of WST-1 signal results as well as microscopic evaluation of cell death by four-parameter regression analyses using the SigmaPlot software (Systat Software inc. San Jose, Calif.):
# (§4) [formula] where Y is the response (WST-1 signal or percent apoptosis), min and max are minimum and maximum response, X is concentration of analogue, EC50 equals the point of inflection, i.e. the point that gives half of maximum response, and h is the Hill's slope of the curve. The two methods gave consistent response curves for each analogue. In the case of Tirapazamine, where its colour interfered with the WST-1 signal, only microscopic evaluation of Hoechst stained cells was used in order to calculate its EC50 values.
# [2] = tested on: human acute myeloid leukemia cell line MOLM-13; experiment: as above; type: cell-based
# Method: as §1, §2, §3, §4
# [3] = tested on: normal rat kidney epithelial (NRK) cells; experiment: as above; type: cell-based
# Method: as §1, §2, §3, §4
# [4] = Parallel artificial membrane permeability assay (PAMPA); conditions: for Permeability: PAMPA class by ranges of Bennion et al.; for LogPeff: PAMPA, 50 μM in PBS, room temperature, five hours
# Method: The Corning Gentest™ pre-Coated parallel artificial membrane permeability assay PAMPA Plate System was from Cording Discovery Labware (Bedford, USA). The compounds were tested in room temperature at 50 μM using PBS as buffer. A total of 300 μl of the compound solution was added to each well of the donor plate, and 200 μl of PBS was added to the receiver filter plate. After incubation for five hours, 50 μl of the donor or acceptor well were injected into a reversed phase HPLC column (Kromasil 100-5 C18 150-4.6 mm, Akzo Nobel, Sweden) connected to a Merck-Hitachi LaChrome HPLC-system (VWR, WestChester, USA) with a L-7455 diode array detector. Mobile phase A was 0.05% aqueous TFA, and mobile phase B was acetonitrile. The flow rate was 1.6 ml/min and compounds eluted between 1 and 4.5 minutes was eluted during a 6.5 min gradient from 90:10% mobile phase A:B to 0:100% mobile phase A:B. The ratio of the compound concentrations in the donor and acceptor compartment was calculated after integration of the peaks at 285 nm. Peff was calculated as described in [Bennion B J, Be N A, McNerney M W, Lao V, Carlson E M, Valdez C A, et al. Predicting a Drug's Membrane Permeability: A Computational Model Validated With in Vitro Permeability Assay Data. The journal of physical chemistry B. 2017; 121(20):5228-37.]. Membrane permeability were classified by the range defined by Bennion et al., allowing for us to divide the compounds into four groups, compounds with high permeability (LogPeff>−5.33), intermediate permeability (LogPeff>−5.66 and <−5.33), low permeability (LogPeff>−6.14 and <−5.66) impermeable (LogPeff<−6.14).
# Molm13 cells = experiment: Anti-AML activity, WST-1 viability (Example 72); type: cell-based; conditions: Homo sapiens, MOLM-13, 24 h
# Method: Dry powder of analogs were dissolved in DMSO. IPC-18 rat AML cells (Lacaze, N. et al. Leuk. Res. 1983, 7, 145.) were cultured in DMEM medium (Sigma-Aldrich, St. Louis, Mo., USA) supplemented with 10% horse serum (Invitrogen, Carlsbad, Calif., USA), and antibiotics (50 U/mL of penicillin and 0.05 mg/mL streptomycin). Molm13 (Matsuo, Y. et al. Leukemia 1997, 11, 1469.) cells were cultured in RPMI supplemented with antibiotics (50 U/mL of penicillin and 0.05 mg/mL streptomycin) and 10% fetal bovine serum (FBS, Invitrogen, Carlsbad, Calif.) and kept in exponential growth before the experiments. Dilution series of iodinin analogs were added to medium and cell suspension added to reach a final cell concentration of 150 000 cells/ml in 0.1 mL in a 96 well tissue culture plate. […] The cells were incubated with the iodinin analogs for 22 h before WST-1 was added according to the manufacturers protocol, and the cells incubated further in 2 h. Mitochondrial conversion of WST-1 to its colored metabolite was measured by a plate reader at 450 nm, with 620 nm as the reference wavelength. The cells were next fixed by adding 4% buffered formaldehyde (PBS, pH 7.4, supplemented with 0.01 mg/mL Hoechst 33342 for nuclear visualization) to the cell suspension at 1:1 (v/v) ratio (final concentration of formaldehyde:[…]). The cells' nuclear and surface morphology were examined microscopically and results compared with the WST-1 viability assay. The results given in Table I are based on WST-1 data.
# [5] = tested on: methicillin-resistant S. aureus MRSA A4-37; experiment: Microbroth dilution MIC; type: cell-based; conditions: compound alone
# Method: (§5) Day 1: • Plate bacterial strain(s) on appropriate media: • Gram-negative bacteria with ESBLs or carbapenemases: green agar plates with 100 mg/L ampicillin • Gram-negative bacteria without β-lactamases: green agar plates • Gram-positive bacteria (Staphylococci and Enterococci): blood agar plates • Incubate o.n. at 37° C.
# (§6) Prepare the Bacterial Inoculum: • Prepare a 0.5 McFarland suspension of bacteria in 0.85% NaCl. (Should be used within 15 min of preparation). • Dilute the 0.5 McFarland suspension 1:100 into MH broth.
# (§7) Check the inoculum by diluting the prepared bacterial suspension 1:100 (10 μl bacterial suspension+990 μl 0.85% NaCl). Plate 10 μl of the dilution on MH agar plates (×2). Incubate o.n. at 37° C., count the colonies and calculate the final CFU/ml inoculum in the plate by multiplying the average number of colonies with 10000 and divide by 2. The final inoculum should be between 3-7×10^5 CFU/ml. • Add 50 μl of the prepared bacterial suspension to each well in the microtiter plate except negative growth control.
# (§8) Preparation of Compounds/Antibiotics • Calculate the desired concentration-range and volume of the compounds/antibiotics in the assay. For antibiotics this will depend on the MIC to meropenem of the bacterial strains to be tested. Dilute the stock solution in MH broth. Make subsequent 2-fold dilutions in MH broth of the desired concentrations if a concentration range is to be tested (remember the extra dilution factor in the assay plate). Always include extra volume for pipetting. Take into consideration stock solutions that are made in buffers that have an effect on bacterial growth (e.g. DMSO).
# (§9) This experimental design was used for the results in Tables 4 and 5 below. In Table 4, inhibitor concentration dependency on the MIC of meropenem was studied.
# [6] = tested on: vancomycin-resistant E. faecium vanA A1-22; experiment: Microbroth dilution MIC; type: cell-based; conditions: compound alone
# Method: as §5, §6, §7, §8, §9
# [7] = H9c2, 19% O2, 24 hours of incubation
# [8] = MOLM-13, 2% O2, 24 hours of incubation, read-out: EC50 (μM) MOLM-13 2% O2
# [9] = MOLM-13, 19% O2, 24 hours of incubation, read-out: EC50 (μM) MOLM-13 19% O2
# [10] = Rattus norvegicus, 24 h, read-out: EC50 (μM) NRK 2% O2, NRK, 2% O2, 24 hours of incubation
# [11] = Rattus norvegicus, 24 h, read-out: EC50 (μM) NRK 19% O2, NRK, 19% O2, 24 hours of incubation
# [12] = read-out: EC50 (μM) NRK 2% O2, 2% O2, 24 hours of incubation
# [13] = read-out: EC50 (μM) NRK 19% O2, 19% O2, 24 hours of incubation
Compound,LogPeff [4],"EC50 (hepG2; HepG2, 24 h) [µM]","EC50 [1, 7] [µM]","EC50 [2, 8] [µM]","EC50 [2, 9] [µM]","EC50 [3, 10] [µM]","EC50 [3, 11] [µM]",MIC A4-37 S. aureus MRSA [5] [µg/mL],MIC A1-22 E. faecium vanA [6] [µg/mL],also measured
"CCOC(=O)COc1cccc2c1[n+]([O-])c1cc(Cl)c(Cl)cc1[n+]2[O-] [Example 6c, 7,8-dichloro-1-(2-ethoxy-2-oxoethoxy)phenazine 5,10-dioxide]",−5.42,,,,,,,,,"EC50 (hepG2; hepG2, 24 hours of incubation): 12 µM; EC50 ([1]; Rattus norvegicus, H9c2, 19% O2, 24 hours of incubation): 1.3 ± 0.2 µM; EC50 ([2]; Homo sapiens, MOLM-13, 2% O2, 24 hours of incubation, read-out: EC50 (μM) MOLM-13 2% O2): 0.38 ± 0.04 µM; EC50 ([2]; Homo sapiens, MOLM-13, 19% O2, 24 hours of incubation, read-out: EC50 (μM) MOLM-13 19% O2): 0.41 ± 0.05 µM; EC50 ([3]; Rattus norvegicus, 2% O2, 24 hours of incubation, read-out: EC50 (μM) NRK 2% O2): 4.7 ± 0.09 µM; EC50 ([3]; Rattus norvegicus, 19% O2, 24 hours of incubation, read-out: EC50 (μM) NRK 19% O2): 3.1 ± 0.02 µM; Permeability [4]: Intermediate/high"
"COc1cccc2c1[n+]([O-])c1cccc(OC(=O)N3CCN(C)CC3)c1[n+]2[O-] [Example 8b, 1-methoxy-6-((4-methylpiperazine-1-carbonyl)oxy)phenazine 5,10-dioxide]",−5.77,90,26 ± 0.9,0.98 ± 0.08,1 ± 0.06,39 ± 4.2,26 ± 2.1,,,
"CN1CCN(C(=O)Oc2cccc3c2[n+]([O-])c2ccccc2[n+]3[O-])CC1 [Example 8c, 1-((4-methylpiperazine-1-carbonyl)oxy)phenazine 5,10-dioxide]",,,36 ± 11,1.9 ± 0.05,1.5 ± 0.18,37 ± 1.9,25 ± 0.2,< 4,8,IC50 (Molm13 cells; read-out: Molm 13 IC50 20% O2): 0.35 µM
"CN1CCN(C(=O)Oc2cccc3c2[n+]([O-])c2cc4ccccc4cc2[n+]3[O-])CC1 [Example 8e, 1-((4-methylpiperazine-1-carbonyl)oxy)benzo[b]phenazine 5,12-dioxide]",−5.38,45,,,,,,,,"EC50 ([1]; Rattus norvegicus, H9c2, 24 h): 3.2 ± 0.1 µM; EC50 ([2]; Homo sapiens, MOLM-13, 24 h, read-out: EC50 (μM) MOLM-13 2% O2): 0.32 ± 0.06 µM; EC50 ([2]; Homo sapiens, MOLM-13, 24 h, read-out: EC50 (μM) MOLM-13 19% O2): 0.34 ± 0.04 µM; EC50 [3, 12]: 15 ± 1.8 µM; EC50 [3, 13]: 10 ± 0.9 µM; Permeability [4]: Intermediate/high"
"CCN(CC)C(=O)Oc1cccc2c1[n+]([O-])c1cccc(O)c1[n+]2[O-] [Example 8i, 1-((diethylcarbamoyl)oxy)-6-hydroxyphenazine 5,10-dioxide]",,,,,,,,< 4,8,IC50 (Molm13 cells; read-out: Molm 13 IC50 2% O2): 0.74 µM; IC50 (Molm13 cells; read-out: Molm 13 IC50 20% O2): 0.76 µM
"COc1cccc2c1[n+]([O-])c1cccc(OC(=O)N(C)C)c1[n+]2[O-] [Example 8m, 1-((dimethylcarbamoyl)oxy)-6-methoxyphenazine 5,10-dioxide]",,,35 ± 1.8,1.7 ± 0.09,1.9 ± 0.07,29 ± 0.7,22 ± 1.7,< 4,63,
"COc1cccc2c1[n+]([O-])c1ccccc1[n+]2[O-] [Example 18, 1-methoxyphenazine 5,10-dioxide]",,,,,,,,< 2,32,
"CN1CCN(C(=O)Oc2cccc3c2[n+]([O-])c2cc(Br)c(Br)cc2[n+]3[O-])CC1 [Example 59, 7,8-dibromo-1-((4-methylpiperazine-1-carbonyl)oxy)phenazine 5,10-dioxide]",,40,2.2 ± 0.53,0.23 ± 0.03,0.41 ± 0.04,,,,,"EC50 [3, 12]: 7.6 ± 0.6 µM; EC50 [3, 13]: 6.2 ± 0.02 µM"
